target: T1, human liver cathepsin D (Homo sapiens, UniProt P07339); test: High-throughput fluorometric cathepsin D assay (library screen); type: biochemical; details: 100 nM inhibitor, crude compound, approximate concentration
T1 construct: human liver cathepsin D (Calbiochem); purchased Calbiochem; host or cells: human liver
Text: Compounds capable of inhibiting cathepsin D can readily be identified using the assays described herein which measure a change in the hydrolysis of a peptide substrate. More particularly, a fluorometric high through-put assay for activity toward human liver cathepsin D (Calbiochem) can be used to screen the compounds of the present invention for their ability to inhibit cathepsin D. This assay was previously described by G. A. Kraft, et al., Methods Enzymol. 241, 70-86 (1994), the teachings of which are incorporated herein by reference. […] T. Baldwin, et al., Proc. Natl. Acad. Sci., U.S.A. 90, 6796-6800 (1993)). Generally, the reactants are mixed, the reaction is allowed to proceed for a specific period of time and the fluorescence of the reaction products is monitored to determine the extent to which the peptide substrate has been cleaved. […] 241, 70-86 (1994). As such, following the methods of the present invention, compounds can be readily synthesized and screened to identify compounds that inhibit cathepsin D. Briefly, a fluorometric high through-put assay for activity toward human liver cathepsin D (Calbiochem) was performed in 96-well microtiter plates (G. A. Krafft, et al., Methods Enymol. 241, 70-86 (1994)). […] T. Baldwin, et al., Proc. Natl. Acad. Sci., U.S.A. 90, 6796-6800 (1993)). The assay was performed in […] Microfluor fluorescence microtiter plates, and readings were taken on a Perkin-Elmer LS-50B with an attached 96-well plate reader. The excitation wavelength was 340 nm. A 340 nm interference filter (Hoya, U-340) for excitation and a 430 nm cut-off filter for emission were used. […] The fluorescent unit readings were taken at three time points within the linear region of the substrate cleavage, and percent activity of the enzyme was determined by comparing the change of fluorescent units (FU) for each well to the average change in FU for six control wells without inhibitor.

T1 sequence (P07339 169-412 limits assumed): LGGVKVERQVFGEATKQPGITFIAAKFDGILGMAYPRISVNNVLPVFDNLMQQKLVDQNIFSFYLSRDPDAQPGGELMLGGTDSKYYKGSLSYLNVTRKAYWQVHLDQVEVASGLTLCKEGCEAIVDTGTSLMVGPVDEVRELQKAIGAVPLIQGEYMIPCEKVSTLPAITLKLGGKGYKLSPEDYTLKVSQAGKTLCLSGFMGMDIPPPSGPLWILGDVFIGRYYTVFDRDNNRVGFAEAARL
T1 sequence (P07339 65-162 limits assumed): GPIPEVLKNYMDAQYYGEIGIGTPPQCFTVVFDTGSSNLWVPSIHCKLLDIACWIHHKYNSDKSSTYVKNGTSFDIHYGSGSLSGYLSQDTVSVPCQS

SMILES	inhibition at 0.1 µM [%]
O=C(CCn1c(=O)oc2ccccc21)N[C@@H](Cc1ccccc1)[C@@H](O)CN(CCc1ccc2c(c1)OCO2)C(=O)CCc1ccc(Cl)c(Cl)c1 [EFA]	≥ 50
O=C(CCc1ccc2c(c1)OCO2)N[C@@H](Cc1ccccc1)[C@@H](O)CN(CCc1ccc2c(c1)OCO2)C(=O)CCN1C(=O)c2ccccc2C1=O [EHI]	≥ 50
COc1ccc(C(=O)N[C@@H](Cc2ccccc2)[C@@H](O)CN(CCc2ccc3c(c2)OCO3)C(=O)CCN2C(=O)c3ccccc3C2=O)c(Cl)c1OC [EHJ]	≥ 50
O=C(CCn1c(=O)oc2ccccc21)N[C@@H](Cc1ccccc1)[C@@H](O)CN(CCc1ccc(Cl)cc1Cl)C(=O)CCN1C(=O)c2ccccc2C1=O [FHA]	≥ 50
O=C(COc1cc(Cl)c(Cl)cc1Cl)N[C@@H](Cc1ccccc1)[C@@H](O)CN(CCc1ccc2c(c1)OCO2)C(=O)CCN1C(=O)c2ccccc2C1=O [EHD]	≥ 50
O=C(CCn1c(=O)oc2ccccc21)N[C@@H](Cc1ccccc1)[C@@H](O)CN(CCc1ccc2c(c1)OCO2)C(=O)COc1c(Cl)cc(Cl)cc1Cl [EAA]	≥ 50
O=C(CCn1c(=O)oc2ccccc21)N[C@@H](Cc1ccccc1)[C@@H](O)CN(CCc1ccc2c(c1)OCO2)C(=O)CCN1C(=O)c2ccccc2C1=O [EHA]	≥ 50

same assay, conditions: 330 nM inhibitor, crude compound, approximate concentration; read-out: Inhibition of Cathepsin D in Library Screen

SMILES	inhibition at 0.33 µM [%]
O=C(N[C@@H](Cc1ccccc1)[C@@H](O)CN(CCc1ccc2c(c1)OCO2)C(=O)/C=C/c1cc2c(cc1Br)OCO2)c1ccc([N+](=O)[O-])cc1Cl [EEF]	≥ 50
COc1ccc(C(=O)N[C@@H](Cc2ccccc2)[C@@H](O)CN(CCc2ccc3c(c2)OCO3)C(=O)/C=C/c2c(Cl)cccc2Cl)c(Cl)c1OC [EGJ]	≥ 50
O=C(CCn1c(=O)oc2ccccc21)N[C@@H](Cc1ccccc1)[C@@H](O)CN(CCc1ccc2c(c1)OCO2)C(=O)CCc1ccc(Cl)c(Cl)c1 [EFA]	≥ 50
O=C(CCN1C(=O)c2ccccc2C1=O)N[C@@H](Cc1ccccc1)[C@@H](O)CN(CCc1ccc(Cl)cc1Cl)C(=O)CCc1ccc(Cl)c(Cl)c1 [FFH]	≥ 50
O=C(N[C@@H](Cc1ccccc1)[C@@H](O)CN(CCc1ccc(Cl)cc1Cl)C(=O)CCN1C(=O)c2ccccc2C1=O)c1ccc([N+](=O)[O-])cc1Cl [FHF]	≥ 50
O=C(/C=C/c1c(Cl)cccc1Cl)N[C@@H](Cc1ccccc1)[C@@H](O)CN(CCc1ccc2c(c1)OCO2)C(=O)CCN1C(=O)c2ccccc2C1=O [EHB]	≥ 50
O=C(CCn1c(=O)oc2ccccc21)N[C@@H](Cc1ccccc1)[C@@H](O)CN(CCc1ccc(Cl)cc1Cl)C(=O)CCc1ccc(Cl)c(Cl)c1 [FFA]	≥ 50
O=C(CCc1ccc2c(c1)OCO2)N[C@@H](Cc1ccccc1)[C@@H](O)CN(CCc1ccc2c(c1)OCO2)C(=O)CCc1ccc(Cl)c(Cl)c1 [EFI]	≥ 50
O=C(COc1cc(Cl)c(Cl)cc1Cl)N[C@@H](Cc1ccccc1)[C@@H](O)CN(CCc1ccc2c(c1)OCO2)C(=O)CCc1ccc(Cl)c(Cl)c1 [EFD]	≥ 50
COc1ccc(C(=O)N[C@@H](Cc2ccccc2)[C@@H](O)CN(CCc2ccc3c(c2)OCO3)C(=O)CCc2ccc(Cl)c(Cl)c2)c(Cl)c1OC [EFJ]	≥ 50
COc1ccc(C(=O)N[C@@H](Cc2ccccc2)[C@@H](O)CN(CCc2ccc3c(c2)OCO3)C(=O)COc2c(Cl)cc(Cl)cc2Cl)c(Cl)c1OC [EAJ]	≥ 50
O=C(CCc1ccc2c(c1)OCO2)N[C@@H](Cc1ccccc1)[C@@H](O)CN(CCc1ccc2c(c1)OCO2)C(=O)CCN1C(=O)c2ccccc2C1=O [EHI]	≥ 50
COc1ccc(C(=O)N[C@@H](Cc2ccccc2)[C@@H](O)CN(CCc2ccc(Cl)cc2Cl)C(=O)CCN2C(=O)c3ccccc3C2=O)c(Cl)c1OC [FHJ]	≥ 50
COc1ccc(C(=O)N[C@@H](Cc2ccccc2)[C@@H](O)CN(CCc2ccc3c(c2)OCO3)C(=O)CCN2C(=O)c3ccccc3C2=O)c(Cl)c1OC [EHJ]	≥ 50
O=C(CCn1c(=O)oc2ccccc21)N[C@@H](Cc1ccccc1)[C@@H](O)CN(CCc1ccc(Cl)cc1Cl)C(=O)CCN1C(=O)c2ccccc2C1=O [FHA]	≥ 50
O=C(CCN1C(=O)c2ccccc2C1=O)N[C@@H](Cc1ccccc1)[C@@H](O)CN(CCc1ccc(Cl)cc1Cl)C(=O)COc1c(Cl)cc(Cl)cc1Cl [FAH]	≥ 50
O=C(CCN1C(=O)c2ccccc2C1=O)N[C@@H](Cc1ccccc1)[C@@H](O)CN(CCc1ccc2c(c1)OCO2)C(=O)CCc1ccc(Cl)c(Cl)c1 [EFH]	≥ 50
O=C(COc1cc(Cl)c(Cl)cc1Cl)N[C@@H](Cc1ccccc1)[C@@H](O)CN(CCc1ccc2c(c1)OCO2)C(=O)CCN1C(=O)c2ccccc2C1=O [EHD]	≥ 50
O=C(CCn1c(=O)oc2ccccc21)N[C@@H](Cc1ccccc1)[C@@H](O)CN(CCc1ccc(Cl)cc1Cl)C(=O)COc1c(Cl)cc(Cl)cc1Cl [FAA]	≥ 50
O=C(CCn1c(=O)oc2ccccc21)N[C@@H](Cc1ccccc1)[C@@H](O)CN(CCc1ccc2c(c1)OCO2)C(=O)COc1c(Cl)cc(Cl)cc1Cl [EAA]	≥ 50
O=C(CCN1C(=O)c2ccccc2C1=O)N[C@@H](Cc1ccccc1)[C@@H](O)CN(CCc1ccc2c(c1)OCO2)C(=O)CCN1C(=O)c2ccccc2C1=O [EHH]	≥ 50
O=C(CCn1c(=O)oc2ccccc21)N[C@@H](Cc1ccccc1)[C@@H](O)CN(CCc1ccc2c(c1)OCO2)C(=O)CCN1C(=O)c2ccccc2C1=O [EHA]	≥ 50

same assay, conditions: read-out: Inhibition of Cathepsin D in Library Screen

SMILES	inhibition at 0.33 µM [%]
O=C(N[C@@H](Cc1ccccc1)[C@@H](O)CN(CCc1ccc2c(c1)OCO2)C(=O)CCN1C(=O)c2ccccc2C1=O)c1ccc([N+](=O)[O-])cc1Cl [EHF]	≥ 50

target: cathepsin D (Homo sapiens, UniProt P07339); test: Cathepsin D cuvette assay for IC50 and inhibition constants (Ki); type: biochemical; details: Table IV; substrate 2.5 μM, cathepsin D 10 nM; Ki ≈ IC50 − Et/2
Text: Compounds capable of inhibiting cathepsin D can readily be identified using the assays described herein which measure a change in the hydrolysis of a peptide substrate. More particularly, a fluorometric high through-put assay for activity toward human liver cathepsin D (Calbiochem) can be used to screen the compounds of the present invention for their ability to inhibit cathepsin D. This assay was previously described by G. A. Kraft, et al., Methods Enzymol. 241, 70-86 (1994), the teachings of which are incorporated herein by reference. […] T. Baldwin, et al., Proc. Natl. Acad. […] Generally, the reactants are mixed, the reaction is allowed to proceed for a specific period of time and the fluorescence of the reaction products is monitored to determine the extent to which the peptide substrate has been cleaved. […] 241, 70-86 (1994). As such, following the methods of the present invention, compounds can be readily synthesized and screened to identify compounds that inhibit cathepsin D. [table]

cathepsin D, sequence (P07339 65-412): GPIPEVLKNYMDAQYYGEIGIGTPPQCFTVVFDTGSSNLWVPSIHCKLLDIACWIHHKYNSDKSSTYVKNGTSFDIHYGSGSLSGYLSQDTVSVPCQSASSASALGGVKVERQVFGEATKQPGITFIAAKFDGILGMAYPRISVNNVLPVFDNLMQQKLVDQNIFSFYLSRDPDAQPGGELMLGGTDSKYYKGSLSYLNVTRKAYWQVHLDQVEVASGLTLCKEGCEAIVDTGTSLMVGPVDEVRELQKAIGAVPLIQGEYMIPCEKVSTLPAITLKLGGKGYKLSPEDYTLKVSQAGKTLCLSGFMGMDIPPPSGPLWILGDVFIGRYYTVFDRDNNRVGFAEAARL

SMILES	Ki [nM]
O=C(CCn1c(=O)oc2ccccc21)N[C@@H](Cc1ccccc1)[C@@H](O)CN(CCc1ccc2c(c1)OCO2)C(=O)CCc1ccc(Cl)c(Cl)c1 [EFA]	171 ± 25
COc1ccc(C(=O)N[C@@H](Cc2ccccc2)[C@@H](O)CN(CCc2ccc3c(c2)OCO3)C(=O)CCN2C(=O)c3ccccc3C2=O)c(Cl)c1OC [EHJ]	111 ± 8
O=C(CCn1c(=O)oc2ccccc21)N[C@@H](Cc1ccccc1)[C@@H](O)CN(CCc1ccc(Cl)cc1Cl)C(=O)CCN1C(=O)c2ccccc2C1=O [FHA]	231 ± 31
O=C(COc1cc(Cl)c(Cl)cc1Cl)N[C@@H](Cc1ccccc1)[C@@H](O)CN(CCc1ccc2c(c1)OCO2)C(=O)CCN1C(=O)c2ccccc2C1=O [EHD]	73 ± 9
O=C(CCn1c(=O)oc2ccccc21)N[C@@H](Cc1ccccc1)[C@@H](O)CN(CCc1ccc2c(c1)OCO2)C(=O)CCN1C(=O)c2ccccc2C1=O [EHA]	131 ± 12

same assay, conditions: Table V second generation; conditions as Table IV

SMILES	IC50 [nM]
O=C(COc1ccc(Cl)c(Cl)c1)N[C@@H](Cc1ccccc1)[C@@H](O)CN(CCc1ccc2c(c1)OCO2)C(=O)CCN1C(=O)c2ccccc2C1=O [EHO]	19 ± 2
COc1cc(Br)c(C(=O)N[C@@H](Cc2ccccc2)[C@@H](O)CN(CCc2ccc3c(c2)OCO3)C(=O)CCN2C(=O)c3ccccc3C2=O)cc1OC [EHS]	64 ± 6
O=C(COc1ccc(Cl)c(Cl)c1)N[C@@H](Cc1ccccc1)[C@@H](O)CN(CCc1ccc(Cl)cc1Cl)C(=O)CCN1C(=O)c2ccccc2C1=O [FHO]	18 ± 2
Cc1ccc(CCN(C[C@H](O)[C@H](Cc2ccccc2)NC(=O)COc2cc(Cl)c(Cl)cc2Cl)C(=O)CCN2C(=O)c3ccccc3C2=O)cc1 [UHD]	229 ± 44
O=C(COc1ccc(Cl)cc1Cl)N[C@@H](Cc1ccccc1)[C@@H](O)CN(CCc1ccc2c(c1)OCO2)C(=O)CCN1C(=O)c2ccccc2C1=O [EHM]	14 ± 2
O=C(COc1cccc(Cl)c1)N[C@@H](Cc1ccccc1)[C@@H](O)CN(CCc1ccc2c(c1)OCO2)C(=O)CCN1C(=O)c2ccccc2C1=O [EHR]	20 ± 2

same assay, conditions: Table V second generation; conditions as Table IV; Ki ≈ IC50 − Et/2

SMILES	Ki [nM]
O=C(COc1ccc(Cl)c(Cl)c1)N[C@@H](Cc1ccccc1)[C@@H](O)CN(CCc1ccc2c(c1)OCO2)C(=O)CCN1C(=O)c2ccccc2C1=O [EHO]	15
COc1cc(Br)c(C(=O)N[C@@H](Cc2ccccc2)[C@@H](O)CN(CCc2ccc3c(c2)OCO3)C(=O)CCN2C(=O)c3ccccc3C2=O)cc1OC [EHS]	59
O=C(COc1ccc(Cl)c(Cl)c1)N[C@@H](Cc1ccccc1)[C@@H](O)CN(CCc1ccc(Cl)cc1Cl)C(=O)CCN1C(=O)c2ccccc2C1=O [FHO]	14
Cc1ccc(CCN(C[C@H](O)[C@H](Cc2ccccc2)NC(=O)COc2cc(Cl)c(Cl)cc2Cl)C(=O)CCN2C(=O)c3ccccc3C2=O)cc1 [UHD]	224
O=C(COc1ccc(Cl)cc1Cl)N[C@@H](Cc1ccccc1)[C@@H](O)CN(CCc1ccc2c(c1)OCO2)C(=O)CCN1C(=O)c2ccccc2C1=O [EHM]	9
O=C(COc1cccc(Cl)c1)N[C@@H](Cc1ccccc1)[C@@H](O)CN(CCc1ccc2c(c1)OCO2)C(=O)CCN1C(=O)c2ccccc2C1=O [EHR]	15

same assay, conditions: Table VI, P1-varied 204 compound library, purified

SMILES	Ki [nM]
COc1cc(Br)c(C(=O)N[C@@H](Cc2ccc3ccccc3c2)[C@@H](O)CN(CCc2ccc(Cl)cc2Cl)C(=O)CCN2C(=O)c3ccccc3C2=O)cc1OC [Gbcf]	2.6 ± 0.2
COc1cc(Br)c(C(=O)N[C@@H](Cc2ccc(-c3ccccc3)cc2)C(O)CN(CCc2ccc(Cl)cc2Cl)C(=O)CCN2C(=O)c3ccccc3C2=O)cc1OC (stereo partly drawn) [Obcf]	2.6 ± 0.2
COc1cc(Br)c(C(=O)N[C@@H](Cc2ccc(Br)cc2)[C@@H](O)CN(CCc2ccc(Cl)cc2Cl)C(=O)CCN2C(=O)c3ccccc3C2=O)cc1OC [Qbcf]	6.7 ± 0.7
COc1cc(Br)c(C(=O)N[C@@H](Cc2cccc(Oc3ccccc3)c2)[C@@H](O)CN(CCc2ccc(Cl)cc2Cl)C(=O)CCN2C(=O)c3ccccc3C2=O)cc1OC [Kbcf]	1.9 ± 0.2

From patent US7119105B2, “Methods for treating neurodegenerative disorders using aspartyl protease inhibitors” (The Regents of the University of California, priority 1997, dated 2006)
